Read-outs that look alike come from different tables or passages of the source.
Legend:
[1] = test system: carrageenin-induced rat paw edema; assay: carrageenin-induced rat paw edema method (Winter et al.); type: in vivo, male Wistar rats; details: for protection: 300 mg/kg p.o.
Source text: The compound 5-(4-chlorophenyl)-2-furancarboxylic acid (I) [drawing 1] and its preparation have been described in the chemical literature (Mathur et al. , J. Chem. Soc., 1961 (Part 2), 2576-2578). It has now been discovered that this compound exerts impressive anti-inflammatory activity using the well recognized carrageenin- induced rat paw edema method described by Winter et al. in Proc. Soc. […] Positive results secured under this method are correlative to successful performance in other species where the need for anti-inflammatory medication is present.
In accordance with the aforementioned -method, fasted male Wistar rats, 100-125 g., were dosed in groups of 3 with […] p.o. of (1) in 0.5% (wlv) methylcellulose. A control group of 20 rats (groups of 5 rats each combined from 4 separate experiments) received methylcellulose only at the same dose rate of 10 ml/kg. One hour later 0.05 ml of 1% (w/v) carrageenin was injected into the plantar region of the right hindpaw of each rat, using a 27-gauge 1/2-inch needle. Before oral dosing and at 4 and 6 hours post-carrageenin, hindpaw volumes were determined by immersing the feet in a liquid mercury bath to the level of the anatomical hairline. Displacement of the mercury was determined as a pressure difference, measured through a Statham venous pressure transducer coupled to a Grass Model 7 polygraph. The polygraph was calibrated such that a 1 ml displacement produced a 1 mm pen deflection. Two consecutive measurements were taken in all cases and the mean value used in calculations. Calculation of the ED50 value was done as described below for the mouse writhing data. Mean percent protection increased at 4 hours from 0 to 3 mg/kg p.o. to 51.5 at 100 mg/kg p.o. and at 6 hours from 16.6 at 3 mg/kg to 39.9 at 100 mg/kg in a dose-dependent manner. The high dose of 300 mg/kg p.o. gave 34.9 and 23.2% protection at 4 and 6 hours, respectively.

[2] = test system: ultraviolet light-induced cutaneous erythema; assay: ultraviolet light-induced cutaneous erythema test (Winder et al.); type: in vivo, guinea pigs; details: Cavia porcellus, po; linear regression of log dose versus percent protection, combined 2, 3 and 4 hour readings
Description: Guinea pigs weighing 280-715 g were fasted 24 hours and the dorsal-lateral surface was cleared by clipping and chemical depilation. The animals were placed in an opaque rubber glove with three circular, 6 mm punched holes. Exposure for 90 seconds at a distance of 7 cm to a Model 30620 Hanovia ultraviolet lamp with a Type 616A bulb and Type 6540-001 filter produced the erythema. (I) in methylcellulose was administered orally one hour before irradiation to groups of 5 animals at doses from 5 to 153 mg/kg at a rate of 10 mI/kg. Erythema was scored at 2, 3 and 4 hours post-irradiation as 0 (no redness), 0.5 (slight redness) or 1 (full red circle). Percent protection was calculated with reference to a vehicle-dosed control group of 5 animals treated on the same day. ED50 values were estimated by linear regression analysis of the log dose versus percent protection (combined 2, 3 and 4 hour readings) relationship.

[3] = test system: phenylquinone-induced writhing; assay: antagonism of phenylquinone-induced writhing (Hendershot and Forsaith); type: in vivo, male albino mice; details: for Mean percent protection: one hour before phenylquinone i.p.; for ED50: Mus musculus, read-out: dose giving 50% protection (ED50)
Description: Groups of 10 fasted male albino mice, 14-28 g. were dosed by gavage with 18-1,000 mg/kg (I) in 0.5% (w/v) methylcellulose or with methylcellulose solution alone. One hour later each mouse received 10 ml/kg of 0.02% phenylquinone in 5% ethanol intraperitoneally. The characteristic writhing responses were observed and counted from 5 to 15 minutes after phenylquinone administration.

[4] = test system: carrageenin-induced rat paw edema; details: same test; Goldenberg et al., Arch. Int. Pharmacodyn. Ther., 243:331-350, 1980; cited from earlier work
[5] = test system: ultraviolet light-induced cutaneous erythema; details: similar evaluation; Goldenberg et al., op cit.; cited from earlier work

| Compound | Mean percent protection ([1]; 3 mg/kg p.o., 4 hours post-carrageenin) | Mean percent protection ([1]; 3 mg/kg p.o., 6 hours post-carrageenin) | Mean percent protection ([1]; 100 mg/kg p.o., 4 hours post-carrageenin) | Mean percent protection ([1]; 100 mg/kg p.o., 6 hours post-carrageenin) | protection ([1]; 4 hours post-carrageenin) | protection ([1]; 6 hours post-carrageenin) | ED50 ([1]; Rattus norvegicus, 4 hours post-carrageenin, oral dose 1 hour before carrageenin) | ED50 [2] | Mean percent protection ([3]; 18 mg/kg by gavage) | Mean percent protection ([3]; 1,000 mg/kg by gavage) | ED50 ([3]; linear regression of log oral dose versus percent protection) | ED50 ([3]; po) | ED50 value [4] | ED50 estimate [5] |
| --- | --- | --- | --- | --- | --- | --- | --- | --- | --- | --- | --- | --- | --- | --- |
| O=C(O)c1ccc(-c2ccc(Cl)cc2)o1 [(I), 5-(4-chlorophenyl)-2-furancarboxylic acid] | 0% | 16.6% | 51.5% | 39.9% | 34.9% | 23.2% | 84.2 mg/kg | 24 mg/kg | 13.1% | 92.4% | 213 mg/kg | – | – | – |
| CC(=O)Oc1ccccc1C(=O)O [aspirin] | – | – | – | – | – | – | – | – | – | – | – | 182 mg/kg | 155 mg/kg p.o. | 49.5 mg/kg p.o. |

Source: patent publication EP0123546A2, “Compositions for treating inflammation and eliciting analgesia” (Norwich Eaton Pharmaceuticals, Inc., priority 1983, dated 1984)
